Patent US11963995B2, “Methods comprising desmopressin” (Ferring B.V., priority 2008, dated 2024)

Test system: adult patients with nocturia
Test: Number of nocturnal voids, change from baseline to Day 28 (Study CS29 Part I)
Format: in vivo, human
Conditions: for fewer nocturnal urinary voids per night compared to baseline before treatment (median): Day 28; for Change from baseline to final visit (Day 28) of nocturnal voids, mean / Change from baseline to final visit (Day 28) of nocturnal voids, median: ITT, Part I; for minimum effective dose (MED): primary endpoint nocturnal voids
Protocol: The term “nocturnal void” as used herein refers to a void occurring from 5 minutes after bedtime until rising in the morning with the intention of getting up.
All treatments were administered orally once per night approximately 1 hour prior to bedtime; subjects were instructed to limit their fluid intake prior to drug self-administration. […] Randomization was to be stratified by age (<65, ≥65 years) and by the absence/presence of nocturnal polyuria, defined as a ratio of nighttime urine volume/24-hour urine volume 33%. To achieve the desired number of subjects within each stratum, enrollment of subjects in a particular stratum (age and/or presence/absence of nocturnal polyuria) could be halted. If this was necessary, all investigative sites were to be informed in writing at least 1 week in advance to stop screening in a population of subjects.
A total of 750 subjects were planned to be enrolled, with approximately 150 subjects per treatment group. Part I of the study was conducted in 7 visits. Screening (Visit 1) occurred within 21 days of dosing (Day 1, Visit 2); subjects returned for follow-up visits on Days 4, 8, 15, 22, and 28 (end of Part I). Duration of treatment in Part I was 28 days.
Subjects who met the following inclusion criteria were eligible for the study: provided written informed consent prior to the performance of any study-related activity, defined as any procedure that would not have been performed during the normal management of the subject; and was a male or female subject, 18 years of age and older, with an average of ≥2 nocturnal voids per night determined via a 3-day frequency-volume chart during the screening period
All treatments were administered orally once per night approximately 1 hour prior to bedtime. Subjects were instructed to place the tablet under their tongue, without water. Subjects were provided with sufficient study drug for the duration of Part I.
The primary endpoints for efficacy assessment were: (1) change in mean number of nocturnal voids from baseline evaluation to final visit (Day 28); and (2) proportion of subjects with >33% reduction in the mean number of nocturnal voids from baseline to final visit (Day 28). A further description and corresponding data directed to the second primary endpoint (i.e., portion of subjects with >33% reduction in the mean number of nocturnal voids) are not provided herein.
Of the 799 randomized subjects in Part I, 757 subjects who received at least 1 dose of study drug and had follow-up data were included in the intent to treat (ITT) analysis dataset. […] All 799 randomized subjects received at least 1 dose of study drug (desmopressin or placebo) and had at least 1 safety assessment and, therefore, were included in the safety analysis dataset.
Missing values concerning number of nocturnal voids at Day 8, Day 15, Day 22, and Day 28 in Part I were imputed using last observation carried forward (LOCF). Missing values concerning sleep disturbance and urine volume (for average 24-hour urine volume and average nocturnal urine volume) were not imputed.

[1] = 10 ug, all males with monitoring
[2] = 10 ug, females over 50 years of age
[3] = 10 ug, females over 65 years of age
[4] = 25 ug, all males with monitoring
[5] = 25 ug, females over 50 years of age
[6] = 25 ug, females over 65 years of age
[7] = 50 ug, all males with monitoring
[8] = 50 ug, females over 50 years of age
[9] = 50 ug, females over 65 years of age
[10] = 100 ug, all males with monitoring
[11] = 100 ug, females over 50 years of age
[12] = 100 ug, females over 65 years of age

NC(=O)CC[C@@H]1NC(=O)[C@H](Cc2ccccc2)NC(=O)[C@H](Cc2ccc(O)cc2)NC(=O)CCSSC[C@@H](C(=O)N2CCC[C@H]2C(=O)N[C@H](CCCN=C(N)N)C(=O)NCC(N)=O)NC(=O)[C@H](CC(N)=O)NC1=O [desmopressin]
fewer nocturnal urinary voids per night compared to baseline before treatment (median) (10 μg, all females): at least 1.0 voids per night | Change from baseline to final visit (Day 28) of nocturnal voids, mean (10 ug, all females): −1.15 | Change from baseline to final visit (Day 28) of nocturnal voids, median (10 ug, all females): −1.00 | Change from baseline to final visit (Day 28) of nocturnal voids, mean (10 ug, all groups): −0.83 | Change from baseline to final visit (Day 28) of nocturnal voids, median (10 ug, all groups): −0.67 | Change from baseline to final visit (Day 28) of nocturnal voids, mean [1]: −0.66 | Change from baseline to final visit (Day 28) of nocturnal voids, median [1]: −0.67 | Change from baseline to final visit (Day 28) of nocturnal voids, mean (10 ug, all males): −0.54 | Change from baseline to final visit (Day 28) of nocturnal voids, median (10 ug, all males): −0.67 | fewer nocturnal urinary voids per night compared to baseline before treatment (median) (10 μg, females over 50 years of age): at least 1.0 voids per night | Change from baseline to final visit (Day 28) of nocturnal voids, mean [2]: −1.08 | Change from baseline to final visit (Day 28) of nocturnal voids, median [2]: −1.00 | Change from baseline to final visit (Day 28) of nocturnal voids, mean [3]: −0.93 | Change from baseline to final visit (Day 28) of nocturnal voids, median [3]: −0.67 | fewer nocturnal urinary voids per night compared to baseline before treatment (median) (25 μg, all females): at least 1.0 voids per night | Change from baseline to final visit (Day 28) of nocturnal voids, mean (25 ug, all females): −1.22 | Change from baseline to final visit (Day 28) of nocturnal voids, median (25 ug, all females): −1.33 | Change from baseline to final visit (Day 28) of nocturnal voids, mean (25 ug, all groups): −1.00 | Change from baseline to final visit (Day 28) of nocturnal voids, median (25 ug, all groups): −1.00 | Change from baseline to final visit (Day 28) of nocturnal voids, mean [4]: −0.91 | Change from baseline to final visit (Day 28) of nocturnal voids, median [4]: −0.67 | Change from baseline to final visit (Day 28) of nocturnal voids, mean (25 ug, all males): −0.83 | Change from baseline to final visit (Day 28) of nocturnal voids, median (25 ug, all males): −0.67 | fewer nocturnal urinary voids per night compared to baseline before treatment (median) (25 μg, females over 50 years of age): at least 1.0 voids per night | Change from baseline to final visit (Day 28) of nocturnal voids, mean [5]: −1.35 | Change from baseline to final visit (Day 28) of nocturnal voids, median [5]: −1.33 | fewer nocturnal urinary voids per night compared to baseline before treatment (median) (25 μg, females over 65 years of age): at least 1.67 voids per night | Change from baseline to final visit (Day 28) of nocturnal voids, mean [6]: −1.27 | Change from baseline to final visit (Day 28) of nocturnal voids, median [6]: −1.67 | proportion of subjects with >75% reductions in the mean number of nocturnal voids (50 μg, Day 28 (placebo 5%)): 10% | proportion of subjects with >50% reductions in the mean number of nocturnal voids (50 μg, Day 28 (placebo 20%)): 28% | proportion of subjects with >33% reductions in the mean number of nocturnal voids (50 μg, Day 28 (placebo 47%)): 53% | Change from baseline to final visit (Day 28) of nocturnal voids, mean (50 ug, all females): −1.23 | Change from baseline to final visit (Day 28) of nocturnal voids, median (50 ug, all females): −1.00 | Change from baseline to final visit (Day 28) of nocturnal voids, mean (50 ug, all groups): −1.18 | Change from baseline to final visit (Day 28) of nocturnal voids, median (50 ug, all groups): −1.00 | Change from baseline to final visit (Day 28) of nocturnal voids, mean [7]: −1.09 | Change from baseline to final visit (Day 28) of nocturnal voids, median [7]: −1.00 | Change from baseline to final visit (Day 28) of nocturnal voids, mean (50 ug, all males): −1.13 | Change from baseline to final visit (Day 28) of nocturnal voids, median (50 ug, all males): −1.00 | Change from baseline to final visit (Day 28) of nocturnal voids, mean [8]: −1.15 | Change from baseline to final visit (Day 28) of nocturnal voids, median [8]: −1.00 | Change from baseline to final visit (Day 28) of nocturnal voids, mean [9]: −0.97 | Change from baseline to final visit (Day 28) of nocturnal voids, median [9]: −1.00 | Change from baseline to final visit (Day 28) of nocturnal voids, mean (100 ug, all females): −1.51 | Change from baseline to final visit (Day 28) of nocturnal voids, median (100 ug, all females): −1.33 | Change from baseline to final visit (Day 28) of nocturnal voids, mean (100 ug, all groups): −1.43 | Change from baseline to final visit (Day 28) of nocturnal voids, median (100 ug, all groups): −1.33 | Change from baseline to final visit (Day 28) of nocturnal voids, mean [10]: −1.41 | Change from baseline to final visit (Day 28) of nocturnal voids, median [10]: −1.67 | Change from baseline to final visit (Day 28) of nocturnal voids, mean (100 ug, all males): −1.38 | Change from baseline to final visit (Day 28) of nocturnal voids, median (100 ug, all males): −1.33 | Change from baseline to final visit (Day 28) of nocturnal voids, mean [11]: −1.44 | Change from baseline to final visit (Day 28) of nocturnal voids, median [11]: −1.33 | Change from baseline to final visit (Day 28) of nocturnal voids, mean [12]: −1.00 | Change from baseline to final visit (Day 28) of nocturnal voids, median [12]: −1.00 | minimum effective dose (MED) (females): 25 µg | minimum effective dose (MED) (males): 100 µg
